From patent US9255100B2 (BAYER INTELLECTUAL PROPERTY GMBH, priority 2010, dated 2016) come the findings set out here.

Some results are limits rather than exact numbers.

The IC50 is the concentration that gives 50% inhibition.

This experiment deals with T1, N-terminally GST-tagged human full length recombinant Mps-1 kinase (Homo sapiens, UniProt P33981).
T1 construct: N-terminally GST-tagged human full length recombinant Mps-1 kinase; purchased Invitrogen, Karslruhe, Germany PV4071
T1 sequence (P33981 1-857): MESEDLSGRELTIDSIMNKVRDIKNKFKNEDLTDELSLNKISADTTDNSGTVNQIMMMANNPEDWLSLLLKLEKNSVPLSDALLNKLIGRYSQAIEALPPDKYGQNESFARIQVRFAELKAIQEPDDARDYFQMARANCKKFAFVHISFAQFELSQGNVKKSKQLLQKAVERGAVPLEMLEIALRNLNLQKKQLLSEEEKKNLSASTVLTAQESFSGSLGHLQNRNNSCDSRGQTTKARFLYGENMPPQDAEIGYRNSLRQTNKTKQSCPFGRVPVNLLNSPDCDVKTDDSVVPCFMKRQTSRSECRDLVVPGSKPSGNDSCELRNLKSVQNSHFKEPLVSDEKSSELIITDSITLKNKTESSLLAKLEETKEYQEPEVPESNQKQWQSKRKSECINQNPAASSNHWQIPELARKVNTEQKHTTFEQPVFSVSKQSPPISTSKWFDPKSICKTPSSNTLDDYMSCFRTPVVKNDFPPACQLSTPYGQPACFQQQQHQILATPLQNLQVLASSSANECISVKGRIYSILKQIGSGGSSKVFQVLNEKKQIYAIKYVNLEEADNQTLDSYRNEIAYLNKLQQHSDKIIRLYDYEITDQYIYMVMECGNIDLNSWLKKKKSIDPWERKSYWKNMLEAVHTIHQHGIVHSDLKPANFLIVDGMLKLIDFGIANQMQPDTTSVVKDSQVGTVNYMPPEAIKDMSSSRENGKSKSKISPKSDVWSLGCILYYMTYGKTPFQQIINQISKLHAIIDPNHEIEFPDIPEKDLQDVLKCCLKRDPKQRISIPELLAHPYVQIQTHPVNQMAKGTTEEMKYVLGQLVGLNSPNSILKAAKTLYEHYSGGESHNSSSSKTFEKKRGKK
The experiment can be described thus: Mps-1 kinase assay (TR-FRET). The format is biochemical. The settings on record: Mps1 IC50 [nM], 10 μM ATP, 1 μM peptide substrate, 60 min at 22° C. The method in brief: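 Compounds were tested against recombinant full-length Mps-1 bearing an N-terminal GST tag, about 1 nM final, with a biotinylated amide-capped peptide as substrate. Detection reagents were then bound for 1 h at 22° C and the product read by TR-FRET.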
(In general: Time-resolved FRET reads energy transfer from a long-lived donor to a nearby acceptor.)
For the molecule `Cc1cc(-c2cnc3c(NCC(C)(C)O)cc(Nc4ccc(F)cc4Cl)nn23)ccc1C(=O)NC1CC1` [Example 405, 4-{6-[(2-chloro-4-fluorophenyl)amino]-8-[(2-hydroxy-2-methylpropyl)amino]imidazo[1,2-b]pyridazin-3-yl}-N-cyclopropyl-2-methylbenzamide], the IC50 amounted to 0.2 nM.

Regarding `Cc1cc(-c2cnc3c(NCCC(F)(F)F)cc(Nc4cccc(F)c4)nn23)ccc1C(=O)NC1CC1` [Example 324, N-cyclopropyl-4-{6-[(3-fluorophenyl)amino]-8-[(3,3,3-trifluoropropyl)amino]imidazo[1,2-b]pyridazin-3-yl}-2-methyl-benzamide], the half-inhibitory concentration (IC50) was found to be 0.3 nM. In the case of `Cc1cc(-c2cnc3c(NCC(C)(C)O)cc(N4CCCCC4)nn23)ccc1C(=O)NC1CC1` [Example 337, N-cyclopropyl-4-{8-[(2-hydroxy-2-methylpropyl)amino]-6-(piperidin-1-yl)imidazo[1,2-b]pyridazin-3-yl}-2-methyl-benzamide], the half-maximal inhibitory concentration (IC50) is 3.9 nM. With `Cc1cc(-c2cnc3c(NCCC(F)(F)F)cc(Sc4ccccc4)nn23)ccc1C(=S)NC1CC1` [Example 84, N-cyclopropyl-2-methyl-4-{6-(phenylsulfanyl)-8-[(3,3,3-trifluoropropyl)amino]imidazo[1,2-b]pyridazin-3-yl}benzenecarbothioamide], the IC50 turned out to be 0.3 nM.

In the case of `Cc1ccc(Oc2cc(NCCC(F)(F)F)c3ncc(-c4ccc(C(=O)NC5CC5)c(C)c4)n3n2)cc1` [Example 479, N-cyclopropyl-2-methyl-4-{6-(4-methylphenoxy)-8-[(3,3,3-trifluoro-propyl)amino]imidazo [1,2-b]pyridazin-3-yl} benzamide], the IC50 worked out at 0.2 nM.

In the case of `Cc1cc(-c2cnc3c(NCC(C)(C)O)cc(Sc4cccc(OC(C)C)c4)nn23)ccc1C(=O)NC1CC1` [Example 271], the IC50 was 1 nM. Take `CC(C)CNc1cc(-c2ccc(O)cc2)nn2c(-c3ccc(C(=O)NC4CC4)cc3)cnc12` [Example 141, N-cyclopropyl-4-{6-(4-hydroxyphenyl)-8-[(2-methylpropyl)amino]imidazo[1,2-b]pyridazin-3-yl}benzamide]: the concentration for half-maximal inhibition (IC50) stood at 2.4 nM. As for `Cc1cc(-c2cnc3c(NCCC(F)(F)F)cc(Nc4ccccc4)nn23)ccc1C(=O)NC1CC1` [Example 368, 4-{6-anilino-8-[(3,3,3-trifluoropropyl)amino]imidazo[1,2-b]pyridazin-3-yl}-N-cyclopropyl-2-methylbenzamide], the 50% inhibitory concentration (IC50) was determined as 0.1 nM. As to `Cc1cc(-c2cnc3c(NCC(C)(C)O)cc(Oc4cccc(OC(C)C)c4)nn23)ccc1C(=O)NC1CC1` [Example 361, N-cyclopropyl-4-{8-[(2-hydroxy-2-methylpropyl)amino]-6-(3-isopropoxyphenoxy)imidazo[1,2-b]pyridazin-3-yl}-2-methylbenzamide], the half-maximal inhibitory concentration (IC50) is 0.3 nM. As to `CC(C)CNc1cc(-c2cccc(C(=O)NC3CC3)c2)nn2c(-c3ccc(C(=O)NC4CC4)cc3)cnc12` [Example 135, N-cyclopropyl-3-{3-[4-(cyclopropylcarbamoyl)phenyl]-8-[(2-methylpropyl)amino]imidazo[1,2-b]pyridazin-6-yl}benzamide], the IC50 was less than 1 nM. To `CC(C)CNc1cc(-c2cccc(O)c2)nn2c(-c3ccc(C(=O)NC4CC4)cc3)cnc12` [Example 140, N-cyclopropyl-4-{6-(3-hydroxyphenyl)-8-[(2-methylpropyl)amino]imidazo[1,2-b]pyridazin-3-yl}benzamide] belongs 3.9 nM; to `Cc1cc(-c2cnc3c(NCC(C)(C)O)cc(Sc4ccccc4O)nn23)ccc1C(=O)NC1CC1` [Example 73A, N-cyclopropyl-4-{8-[(2-hydroxy-2-methylpropyl)amino]-6-[(2-hydroxyphenyl)sulfanyl]imidazo[1,2-b]pyridazin-3-yl}-2-methylbenzamide], less than 0.7 nM; to `Cc1cc(-c2cnc3c(NCC(C)(C)O)cc(Nc4ccccn4)nn23)ccc1C(=O)NC1CC1` [Example 357, N-cyclopropyl-4-{8-[(2-hydroxy-2-methylpropyl)amino]-6-(pyridin-2-ylamino)imidazo[1,2-b]pyridazin-3-yl}-2-methylbenzamide], 4.4 nM. For `Cc1cc(-c2cnc3c(NCCN(C)C)cc(Oc4ccc(F)c(F)c4)nn23)ccc1C(=O)NC1CC1` [Example 525, N-cyclopropyl-4-[6-(3,4-difluorophenoxy)-8-{[2-(dimethylamino)ethyl]amino}imidazo[1,2-b]pyridazin-3-yl]-2-methylbenzamide] the value was 0.7 nM. For the molecule `Cc1cc(Nc2cc(NCC(C)(C)O)c3ncc(-c4ccc(C(=O)NC5CC5)c(C)c4)n3n2)ccc1F` [Example 382, N-cyclopropyl-4-{6-[(4-fluoro-3-methylphenyl)amino]-8-[(2-hydroxy-2-methylpropyl)amino]imidazo[1,2-b]pyridazin-3-yl}-2-methylbenzamide], the 50% inhibitory concentration (IC50) stood at 1.2 nM. With `Cc1cc(-c2cnc3c(NCC(C)(C)O)cc(Sc4cccs4)nn23)ccc1C(=O)NC1CC1` [Example 261, N-cyclopropyl-4-{8-[(2-hydroxy-2-methylpropyl)amino]-6-(2-thienylsulfanyl)imidazo[1,2-b]pyridazin-3-yl}-2-methylbenzamide], the IC50 worked out at 0.5 nM. Regarding `COc1ccc(Oc2cc(NCC(C)(C)O)c3ncc(-c4ccc(C(=O)NC5CC5)c(C)c4)n3n2)cc1` [Example 86, N-cyclopropyl-4-{8-[(2-hydroxy-2-methylpropyl)amino]-6-(4-methoxyphenoxy)imidazo[1,2-b]pyridazin-3-yl}-2-methylbenzamide], the half-inhibitory concentration (IC50) was 0.1 nM.

For the molecule `CC(C)CNc1cc(-c2ccc3c(c2)OCO3)nn2c(-c3ccc(C(=O)NC4CC4)cc3)cnc12` [Example 136, 4-{6-(1,3-Benzodioxol-5-yl)-8-[(2-methylpropyl)amino]imidazo[1,2-b]pyridazin-3-yl}-N-cyclopropylbenzamide], the IC50 turned out to be 4 nM. For `CCNC(=O)c1ccc(-c2cnc3c(NCC4CCOCC4)cc(Oc4ccc(OC)c(F)c4)nn23)cc1C` [Example 600, N-ethyl-4-{6-(3-fluoro-4-methoxyphenoxy)-8-[(tetrahydro-2H-pyran-4-ylmethyl)a-mino]imidazo[1,2-b]pyridazin-3-yl}-2-methylbenzamide] the value was less than 1 nM. Turning to `Cc1cc(-c2cnc3c(NCC(C)(C)O)cc(Nc4cccnc4)nn23)ccc1C(=O)NC1CC1` [Example 359, N-cyclopropyl-4-{8-[(2-hydroxy-2-methylpropyl)amino]-6-(pyridin-3-ylamino)imidazo[1,2-b]pyridazin-3-yl}-2-methylbenzamide], the IC50 was 1.2 nM.

Turning to `Cc1cc(-c2cnc3c(NC[C@H]4CCCO4)cc(-c4ccnn4C)nn23)ccc1C(=O)NC1CC1` [Example 33, N-cyclopropyl-2-methyl-4-[6-(1-methyl-1H-pyrazol-5-yl)-8-{[(2R)-tetrahydrofuran-2-ylmethyl]amino}imidazo[1,2-b]pyridazin-3-yl]benzamide], the 50% inhibitory concentration (IC50) stood at 1.5 nM.

`COc1ccc(Oc2cc(NCCC(F)(F)F)c3ncc(-c4ccc(C(=O)NC5CC5)c(C)c4)n3n2)cc1F` [Example 475, N-cyclopropyl-4-{6-(3-fluoro-4-methoxy-phenoxy)-8-[(3,3,3-tri-fluoropropyl)amino]imidazo[1,2-b]pyridazin-3-yl}-2-methylbenzamide]: the IC50 was found to be 0.2 nM.
